Values after ≈ are worked out from the molar mass of the structure shown.
Tests used:
M. tuberculosis H37Rv = experiment: microbe, parasite or virus in culture; assay type: cell-based, Mycobacterium tuberculosis; conditions: for MIC: Mycobacterium tuberculosis, H37RV, read-out: MIC, µg/mL in M.tuberculosis strain H37Rv; for MIC, µg/mL in M.tuberculosis strain H37Rv: MABA assay, drug-susceptible strain H37Rv
[1] = tested on: M. tuberculosis MDR strain TN5904; experiment: microbe, parasite or virus in culture; assay type: cell-based, Mycobacterium tuberculosis; conditions: for MIC: Mycobacterium tuberculosis, read-out: MIC, µg/mL in M.tuberculosis strain TN5904; for MIC, µg/mL in M.tuberculosis strain TN5904: MABA assay
[2] = tested on: M. tuberculosis MDR strain M94; experiment: microbe, parasite or virus in culture; assay type: cell-based, Mycobacterium tuberculosis; conditions: for MIC: Mycobacterium tuberculosis, read-out: MIC, µg/mL in M.tuberculosis strain M94; for MIC, µg/mL in M.tuberculosis strain M94: MABA assay
[3] = tested on: M. tuberculosis MDR strain M14; experiment: microbe, parasite or virus in culture; assay type: cell-based, Mycobacterium tuberculosis; conditions: for MIC: Mycobacterium tuberculosis, read-out: MIC, µg/mL in M.tuberculosis strain M14; for MIC, µg/mL in M.tuberculosis strain M14: MABA assay
[4] = tested on: M. tuberculosis MDR strain M28; experiment: microbe, parasite or virus in culture; assay type: cell-based, Mycobacterium tuberculosis; conditions: for MIC: Mycobacterium tuberculosis, read-out: MIC, µg/mL in M.tuberculosis strain M28; for MIC, µg/mL in M.tuberculosis strain M28: MABA assay
[5] = tested on: M. tuberculosis MDR strain M70; experiment: microbe, parasite or virus in culture; assay type: cell-based, Mycobacterium tuberculosis; conditions: for MIC: Mycobacterium tuberculosis, read-out: MIC, µg/mL in M.tuberculosis strain M70; for MIC, µg/mL in M.tuberculosis strain M70: MABA assay
[6] = tested on: M. tuberculosis MDR strain M28; design: key: R- resistant; S -susceptible; conditions: cited from earlier work
[7] = tested on: M. tuberculosis MDR strain TN5904; design: key: R- resistant; S -susceptible; conditions: cited from earlier work
[8] = tested on: M. tuberculosis MDR strain M70; design: key: R- resistant; S -susceptible; conditions: cited from earlier work
[9] = tested on: M. tuberculosis MDR strain M94; design: key: R- resistant; S -susceptible; conditions: cited from earlier work
[10] = tested on: M. tuberculosis MDR strain M14; design: key: R- resistant; S -susceptible; conditions: cited from earlier work

Row | Structure (SMILES) | MIC (M. tuberculosis H37Rv) | MIC [1] | MIC [2] | MIC [3] | MIC [4] | MIC [5] | Drug resistance feature of the strain [6] | Drug resistance feature of the strain [7] | Drug resistance feature of the strain [8] | Drug resistance feature of the strain [9] | Drug resistance feature of the strain [10] | MIC, µg/mL in M.tuberculosis strain H37Rv (M. tuberculosis H37Rv) | MIC, µg/mL in M.tuberculosis strain TN5904 [1] | MIC, µg/mL in M.tuberculosis strain M94 [2] | MIC, µg/mL in M.tuberculosis strain M14 [3] | MIC, µg/mL in M.tuberculosis strain M28 [4] | MIC, µg/mL in M.tuberculosis strain M70 [5]
1 | Cl.Cn1nnc(-c2ccc(-c3ccc(N4C[C@H](CN)OC4=O)cc3F)cn2)n1 [AKG-3] | 0.125 µg/mL | 0.06 µg/mL | 0.06 µg/mL | 0.03 µg/mL | 0.06 µg/mL | ≤ 0.015 µg/mL | – | – | – | – | – | – | – | – | – | – | –
2 | CN(C)CCn1nnc(-c2ccc(-c3ccc(N4C[C@H](CO)OC4=O)cc3F)cn2)n1 [AKG-16] | – | 0.06 µg/mL (≈ 0.14 µM) | 0.06 µg/mL (≈ 0.14 µM) | 0.06 µg/mL (≈ 0.14 µM) | 0.25 µg/mL (≈ 0.585 µM) | 0.125 µg/mL (≈ 0.292 µM) | – | – | – | – | – | – | – | – | – | – | –
3 | CN(C)CCn1nnc(-c2ccc(-c3ccc(N4C[C@H](CN)OC4=O)cc3F)cn2)n1.Cl [AKG-28] | 0.03 µg/mL | 0.015 µg/mL | 0.015 µg/mL | 0.015 µg/mL | 0.015 µg/mL | ≤ 0.004 µg/mL | – | – | – | – | – | – | – | – | – | – | –
4 | Cl.Cl.NCCn1nnc(-c2ccc(-c3ccc(N4C[C@H](CN)OC4=O)cc3F)cn2)n1 [AKG-29] | 0.25 µg/mL | 0.06 µg/mL | 0.125 µg/mL | 0.06 µg/mL | 0.125 µg/mL | ≤ 0.03 µg/mL | – | – | – | – | – | – | – | – | – | – | –
5 | CC(=O)NC[C@H]1CN(c2ccc(-c3ccc(-c4nnn(CCN(C)C)n4)nc3)c(F)c2)C(=O)O1 [AKG-38] | 0.03 µg/mL (≈ 0.064 µM) | 0.03 µg/mL (≈ 0.064 µM) | 0.03 µg/mL (≈ 0.064 µM) | 0.03 µg/mL (≈ 0.064 µM) | 0.03 µg/mL (≈ 0.064 µM) | ≤ 0.015 µg/mL | – | – | – | – | – | – | – | – | – | – | –
6 | CCN(CC)CCn1nnc(-c2ccc(-c3ccc(N4C[C@H](CNC(C)=O)OC4=O)cc3F)cn2)n1 [AKG-39] | – | 0.25 µg/mL (≈ 0.503 µM) | 1 µg/mL (≈ 2.01 µM) | 0.5 µg/mL (≈ 1.01 µM) | 0.5 µg/mL (≈ 1.01 µM) | 0.125 µg/mL (≈ 0.252 µM) | – | – | – | – | – | – | – | – | – | – | –
7 | CC[C@@H](CO)NCCN[C@@H](CC)CO [EMB] | – | – | – | – | – | – | R | S | S | S | S | – | – | – | – | – | –
8 | NNC(=O)c1ccncc1 [INH] | – | – | – | – | – | – | R | R | R | R | R | 0.06 µg/mL (≈ 0.438 µM) | 2 µg/mL (≈ 14.6 µM) | >2 µg/mL | >2 µg/mL | >2 µg/mL | >2 µg/mL
9 | CC(=O)NC[C@H]1CN(c2ccc(N3CCOCC3)c(F)c2)C(=O)O1 [Linezolid] | 2 µg/mL (≈ 5.93 µM) | 1 µg/mL (≈ 2.96 µM) | 0.5 µg/mL (≈ 1.48 µM) | 0.5 µg/mL (≈ 1.48 µM) | 0.5 µg/mL (≈ 1.48 µM) | 0.5 µg/mL (≈ 1.48 µM) | – | – | – | – | – | – | – | – | – | – | –
10 | COc1c(N2C[C@@H]3CCCN[C@@H]3C2)c(F)cc2c(=O)c(C(=O)O)cn(C3CC3)c12 [MOX] | 0.125 µg/mL (≈ 0.311 µM) | 0.125 µg/mL (≈ 0.311 µM) | 0.125 µg/mL (≈ 0.311 µM) | 0.125 µg/mL (≈ 0.311 µM) | 2 µg/mL (≈ 4.98 µM) | 1 µg/mL (≈ 2.49 µM) | – | – | – | – | – | – | – | – | – | – | –
11 | NC(=O)c1cnccn1 [PZA] | – | – | – | – | – | – | R | R | R | S | R | – | – | – | – | – | –
12 | CO[C@H]1/C=C/O[C@@]2(C)Oc3c(C)c(O)c4c(O)c(c(/C=N/N5CCN(C)CC5)c(O)c4c3C2=O)NC(=O)/C(C)=C\C=C\[C@H](C)[C@H](O)[C@@H](C)[C@@H](O)[C@@H](C)[C@H](OC(C)=O)[C@@H]1C [RIF] | – | – | – | – | – | – | R | R | R | S | S | 0.06 µg/mL (≈ 0.0729 µM) | >8 µg/mL | – | 0.06 µg/mL (≈ 0.0729 µM) | >8 µg/mL | >8 µg/mL
13 | CN[C@@H]1[C@H](O[C@H]2[C@H](O[C@H]3[C@H](O)[C@@H](O)[C@H](N=C(N)N)[C@@H](O)[C@@H]3N=C(N)N)O[C@@H](C)[C@]2(O)C=O)O[C@@H](CO)[C@H](O)[C@H]1O [STR] | – | – | – | – | – | – | S | R | R | R | R | 0.5 µg/mL (≈ 0.86 µM) | 1 µg/mL (≈ 1.72 µM) | >8 µg/mL | >8 µg/mL | 0.125 µg/mL (≈ 0.215 µM) | 2 µg/mL (≈ 3.44 µM)

— US20230348447A1, “OXAZOLIDINONE COMPOUNDS, LIPOSOME COMPOSITIONS COMPRISING OXAZOLIDINONE COMPOUNDS AND METHOD OF USE THEREOF” (priority 2020, published 2023)
